Results taken from US10174016B2 (BAYER AKTIENGESELLSCHAFT, priority 2014, dated 2019).
Where two headings read alike, the source gives them in different places.

Experiments:
human P2X3 receptor = human P2X3 receptor (Homo sapiens (Human), UniProt P56373); assay: Intracellular calcium measurement (FLIPR, Fluo-4) of antagonist activity at human P2X3 receptors; assay type: cell-based; conditions: read-out: hP2X3 IC50
In short: (§1)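 Cells expressing human P2X3 or P2X2/3, loaded with Fluo-4, preincubated 30 min at 37° C. with compound (1% DMSO final), then challenged with α,β-Me-ATP at its EC80. Peak FLIPR fluorescence over 90 sec gave % response; IC50, maximal inhibition and Hill slope from triplicates.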

human P2X2/3 receptor = human P2X2/3 receptor (Homo sapiens (Human), UniProt P56373+Q9UBL9); assay: Intracellular calcium measurement (FLIPR, Fluo-4) of antagonist activity at human P2X2/3 receptors; assay type: cell-based; conditions: human P2X2/3, FLIPR calcium assay, agonist α,β-Me-ATP; read-out: hP2X2/3 IC50
In short: as §1

[1] = human P2X3, FLIPR calcium assay, agonist α,β-Me-ATP

Sequence of human P2X3 receptor (P56373 whole entry): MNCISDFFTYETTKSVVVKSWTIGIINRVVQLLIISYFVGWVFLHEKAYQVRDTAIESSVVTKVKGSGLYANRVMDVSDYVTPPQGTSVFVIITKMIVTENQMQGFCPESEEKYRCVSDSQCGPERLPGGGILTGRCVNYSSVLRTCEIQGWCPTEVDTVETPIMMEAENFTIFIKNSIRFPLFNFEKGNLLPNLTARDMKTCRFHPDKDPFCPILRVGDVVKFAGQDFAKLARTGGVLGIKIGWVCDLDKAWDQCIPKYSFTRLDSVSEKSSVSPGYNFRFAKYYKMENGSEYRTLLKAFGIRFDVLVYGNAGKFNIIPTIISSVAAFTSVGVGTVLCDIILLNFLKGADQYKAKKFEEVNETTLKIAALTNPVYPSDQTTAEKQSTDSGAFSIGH
Sequence of human P2X2/3 receptor (P56373 whole entry): as above
Sequence of human P2X2/3 receptor (Q9UBL9 whole entry): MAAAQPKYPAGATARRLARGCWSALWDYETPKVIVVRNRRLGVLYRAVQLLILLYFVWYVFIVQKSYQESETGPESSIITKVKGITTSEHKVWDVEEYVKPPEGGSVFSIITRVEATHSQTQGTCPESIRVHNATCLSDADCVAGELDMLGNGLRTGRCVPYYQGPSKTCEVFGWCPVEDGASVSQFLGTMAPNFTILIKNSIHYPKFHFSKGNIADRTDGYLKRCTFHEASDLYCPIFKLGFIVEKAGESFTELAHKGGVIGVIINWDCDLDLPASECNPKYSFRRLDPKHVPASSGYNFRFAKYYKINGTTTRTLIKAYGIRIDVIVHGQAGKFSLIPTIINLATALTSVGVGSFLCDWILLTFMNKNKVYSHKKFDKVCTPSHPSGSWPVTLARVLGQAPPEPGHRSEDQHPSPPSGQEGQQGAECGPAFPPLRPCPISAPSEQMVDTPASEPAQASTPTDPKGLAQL

Compound	IC50 (human P2X3 receptor; [1]) [nM]	IC50 (human P2X2/3 receptor) [nM]	IC50 (human P2X3 receptor) [nM]
Cc1cnc(-c2cc(OC[C@H]3CN(CC(F)F)CCO3)cc(C(=O)N[C@H](C)c3cnc(C(F)(F)F)nc3)c2)s1 [Example 391, 3-{[(2R)-4-(2,2-difluoroethyl)morpholin-2-yl]methoxy}-5-(5-methyl-1,3-thiazol-2-yl)-N-{(1R)-1-[2-(trifluoromethyl)pyrimidin-5-yl]ethyl}benzamide]	19	840	
COC(=O)N1CCO[C@@H](COc2cc(C(=O)N[C@H](C)c3cnc(C(F)(F)F)nc3)cc(-c3ncc(C)s3)c2)C1 [Example 392, Methyl (2R)-2-{[3-(5-methyl-1,3-thiazol-2-yl)-5-({(1R)-1-[2-(trifluoromethyl)pyrimidin-5-yl]ethyl}carbamoyl)phenoxy]methyl}morpholine-4-carboxylate]	11	411	
COC(=O)N1CCO[C@H](COc2cc(C(=O)N[C@H](C)c3cnc(C(F)(F)F)nc3)cc(-c3ncc(C)s3)c2)C1 [Example 393, methyl (2S)-2-{[3-(5-methyl-1,3-thiazol-2-yl)-5-({(1R)-1-[2-(trifluoromethyl)pyrimidin-5-yl]ethyl}carbamoyl)phenoxy]methyl}morpholine-4-carboxylate]	24	1030	
Cc1cnc(-c2cc(OC[C@H]3COCC(=O)N3)cc(C(=O)N[C@H](C)c3cnc(C(F)(F)F)nc3)c2)s1 [Example 396, 3-(5-methyl-1,3-thiazol-2-yl)-5-{[(3R)-5-oxomorpholin-3-yl]methoxy}-N-{(1R)-1-[2-(trifluoromethyl)pyrimidin-5-yl]ethyl}benzamide]	22	1800	
Cc1cnc(-c2cc(OC[C@@H]3COCC(=O)N3)cc(C(=O)N[C@H](C)c3cnc(C(F)(F)F)nc3)c2)s1 [Example 403, 3-(5-methyl-1,3-thiazol-2-yl)-5-{[(3S)-5-oxomorpholin-3-yl]methoxy}-N-{(1R)-1-[2-(trifluoromethyl)pyrimidin-5-yl]ethyl}benzamide]		2110	56
Cc1cnc(-c2cc(OCC34CC(CO3)N(C(=O)OC(C)(C)C)C4)cc(C(=O)N[C@H](C)c3cnc(C(F)(F)F)nc3)c2)s1 (stereo partly drawn) [Example 404, tert-butyl 1-{[3-(5-methyl-1,3-thiazol-2-yl)-5-({(1R)-1-[2-(trifluoromethyl)pyrimidin-5-yl]ethyl}carbamoyl)phenoxy]methyl}-2-oxa-5-azabicyclo[2.2.1]heptane-5-carboxylate]	44	533	
Cc1cnc(-c2cc(OCC34CC(CO3)N(C(C)C)C4)cc(C(=O)N[C@H](C)c3cnc(C(F)(F)F)nc3)c2)s1 (stereo partly drawn) [Example 405, 3-[(5-isopropyl-2-oxa-5-azabicyclo[2.2.1]hept-1-yl)methoxy]-5-(5-methyl-1,3-thiazol-2-yl)-N-{(1R)-1-[2-(trifluoromethyl)pyrimidin-5-yl]ethyl}benzamide]	17	1560	
Cc1cnc(-c2cc(OCC34CC(CO3)N(C)C4)cc(C(=O)N[C@H](C)c3cnc(C(F)(F)F)nc3)c2)s1 (stereo partly drawn) [Example 406, 3-[(5-methyl-2-oxa-5-azabicyclo[2.2.1]hept-1-yl)methoxy]-5-(5-methyl-1,3-thiazol-2-yl)-N-{(1R)-1-[2-(trifluoromethyl)pyrimidin-5-yl]ethyl}benzamide]	26	2030	
CCCN1CC2(COc3cc(C(=O)N[C@H](C)c4cnc(C(F)(F)F)nc4)cc(-c4ncc(C)s4)c3)CC1CO2 (stereo partly drawn) [Example 408, 3-(5-methyl-1,3-thiazol-2-yl)-5-[(5-propyl-2-oxa-5-azabicyclo[2.2.1]hept-1-yl)methoxy]-N-{(1R)-1-[2-(trifluoromethyl)pyrimidin-5-yl]ethyl}benzamide]	32	1710	
COC(=O)N1CC2(COc3cc(C(=O)N[C@H](C)c4cnc(C(F)(F)F)nc4)cc(-c4ncc(C)s4)c3)CC1CO2 (stereo partly drawn) [Example 409, Methyl 1-{[3-(5-methyl-1,3-thiazol-2-yl)-5-({(1R)-1-[2-(trifluoromethyl)pyrimidin-5-yl]ethyl}carbamoyl)phenoxy]methyl}-2-oxa-5-azabicyclo[2.2.1]heptane-5-carboxylate]	22	976	
CCOC(=O)N1CC2(COc3cc(C(=O)N[C@H](C)c4cnc(C(F)(F)F)nc4)cc(-c4ncc(C)s4)c3)CC1CO2 (stereo partly drawn) [Example 410, Ethyl 1-{[3-(5-methyl-1,3-thiazol-2-yl)-5-({(1R)-1-[2-(trifluoromethyl)pyrimidin-5-yl]ethyl}carbamoyl)phenoxy]methyl}-2-oxa-5-azabicyclo[2.2.1]heptane-5-carboxylate]	22	906	
CCc1cnc(-c2cc(OC[C@@H]3CNCCO3)cc(C(=O)N[C@H](C)c3ccc(C(F)(F)F)nn3)c2)s1 [Example 414, 3-(5-ethyl-1,3-thiazol-2-yl)-5-[(2S)-morpholin-2-ylmethoxy]-N-{(1R)-1-[6-(trifluoromethyl)pyridazin-3-yl]ethyl}benzamide]	29	2270	
CCc1cnc(-c2cc(OC[C@H]3CNCCO3)cc(C(=O)N[C@H](C)c3ccc(C(F)(F)F)nn3)c2)s1 [Example 415, 3-(5-ethyl-1,3-thiazol-2-yl)-5-[(2R)-morpholin-2-ylmethoxy]-N-{(1R)-1-[6-(trifluoromethyl)pyridazin-3-yl]ethyl}benzamide]	10	2180	
Cc1cnc(-c2cc(OC[C@H]3CN(C)CCO3)cc(C(=O)N[C@@H](C)c3cnc(C(F)(F)F)nc3)c2)s1 [Example 416, 3-{[(2R)-4-methylmorpholin-2-yl]methoxy}-5-(5-methyl-1,3-thiazol-2-yl)-N-{(1S)-1-[2-(trifluoromethyl)pyrimidin-5-yl]ethyl}benzamide]		≥ 10000	227

Continued, in another order:

IC50 (human P2X3 receptor; [1]) [nM]	IC50 (human P2X2/3 receptor) [nM]	Compound	IC50 (human P2X3 receptor) [nM]
82	3980	Cc1cnc(-c2cc(OCC3CNC3)cc(C(=O)N[C@H](C)c3cnc(C(F)(F)F)nc3)c2)s1 [Example 394, 3-(Azetidin-3-ylmethoxy)-5-(5-methyl-1,3-thiazol-2-yl)-N-{(1R)-1-[2-(trifluoromethyl)pyrimidin-5-yl]ethyl}benzamide]	
30	1310	Cc1cnc(-c2cc(OC[C@H]3COCC(=O)N3C)cc(C(=O)N[C@H](C)c3cnc(C(F)(F)F)nc3)c2)s1 [Example 395, 3-{[(3R)-4-methyl-5-oxomorpholin-3-yl]methoxyl}-5-(5-methyl-1,3-thiazol-2-yl)-N-{(1R)-1-[2-(trifluoromethyl)pyrimidin-5-yl]ethyl}benzamide]	
15	1360	Cc1cnc(-c2cc(OC[C@@H]3CN(C)C(=O)O3)cc(C(=O)N[C@H](C)c3cnc(C(F)(F)F)nc3)c2)s1 [Example 397, 3-{[(5S)-3-methyl-2-oxo-1,3-oxazolidin-5-yl]methoxy}-5-(5-methyl-1,3-thiazol-2-yl)-N-{(1R)-1-[2-(trifluoromethyl)pyrimidin-5-yl]ethyl}benzamide]	
17	1800	Cc1cnc(-c2cc(OC[C@H]3CN(C)C(=O)O3)cc(C(=O)N[C@H](C)c3cnc(C(F)(F)F)nc3)c2)s1 [Example 398, 3-{[(5R)-3-methyl-2-oxo-1,3-oxazolidin-5-yl]methoxy}-5-(5-methyl-1,3-thiazol-2-yl)-N-{(1R)-1-[2-(trifluoromethyl)pyrimidin-5-yl]ethyl}benzamide]	
69	1720	Cc1cnc(-c2cc(OC[C@H]3CN(C)C(=O)CO3)cc(C(=O)N[C@H](C)c3cnc(C(F)(F)F)nc3)c2)s1 [Example 399, 3-{[(2R)-4-methyl-5-oxomorpholin-2-yl]methoxy}-5-(5-methyl-1,3-thiazol-2-yl)-N-{(1R)-1-[2-(trifluoromethyl)pyrimidin-5-yl]ethyl}benzamide]	
59	1480	Cc1cnc(-c2cc(OC[C@@H]3CNC(=O)CO3)cc(C(=O)N[C@H](C)c3cnc(C(F)(F)F)nc3)c2)s1 [Example 400, 3-(5-methyl-1,3-thiazol-2-yl)-5-{[(2S)-5-oxomorpholin-2-yl]methoxy}-N-{(1R)-1-[2-(trifluoromethyl)pyrimidin-5-yl]ethyl}benzamide]	
30	1470	Cc1cnc(-c2cc(OC[C@@H]3CN(C)C(=O)CO3)cc(C(=O)N[C@H](C)c3cnc(C(F)(F)F)nc3)c2)s1 [Example 401, 3-{[(2S)-4-methyl-5-oxomorpholin-2-yl]methoxy}-5-(5-methyl-1,3-thiazol-2-yl)-N-{(1R)-1-[2-(trifluoromethyl)pyrimidin-5-yl]ethyl}benzamide]	
21	1250	Cc1cnc(-c2cc(OC[C@@H]3COCC(=O)N3C)cc(C(=O)N[C@H](C)c3cnc(C(F)(F)F)nc3)c2)s1 [Example 402, 3-{[(3S)-4-methyl-5-oxomorpholin-3-yl]methoxy}-5-(5-methyl-1,3-thiazol-2-yl)-N-{(1R)-1-[2-(trifluoromethyl)pyrimidin-5-yl]ethyl}benzamide]	
20	697	CCN1CCO[C@H](COc2cc(C(=O)N[C@H](C)c3cnc(C(F)(F)F)nc3)cc(-c3ncc(C)s3)c2)C1 [Example 411, 3-{[(2S)-4-ethylmorpholin-2-yl]methoxy}-5-(5-methyl-1,3-thiazol-2-yl)-N-{(1R)-1-[2-(trifluoromethyl)pyrimidin-5-yl]ethyl}benzamide]	
597	≥ 10000	Cc1cnc(-c2cc(OC[C@H]3CNCCO3)cc(C(=O)N[C@@H](C)c3cnc(C(F)(F)F)nc3)c2)s1 [Example 413, 3-(5-methyl-1,3-thiazol-2-yl)-5-[(2R)-morpholin-2-ylmethoxy]-N-{(1S)-1-[2-(trifluoromethyl)pyrimidin-5-yl]ethyl}benzamide]	
